The first experiment addresses T1, Aurora A proteins (Homo sapiens, UniProt O14965).
T1 construct: endogenous in cells; host or cells: MM.1S
T1 sequence (O14965 1-403): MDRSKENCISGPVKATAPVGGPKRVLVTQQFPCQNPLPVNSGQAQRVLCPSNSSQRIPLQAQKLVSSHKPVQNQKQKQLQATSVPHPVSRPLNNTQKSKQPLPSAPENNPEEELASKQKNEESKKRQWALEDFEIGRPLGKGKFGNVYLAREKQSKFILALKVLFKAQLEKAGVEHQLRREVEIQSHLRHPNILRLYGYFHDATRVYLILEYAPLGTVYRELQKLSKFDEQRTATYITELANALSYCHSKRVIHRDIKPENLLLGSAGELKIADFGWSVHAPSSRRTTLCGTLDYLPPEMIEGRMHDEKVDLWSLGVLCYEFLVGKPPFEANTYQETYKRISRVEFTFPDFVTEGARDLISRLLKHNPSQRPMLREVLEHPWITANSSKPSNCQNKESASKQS
The experiment is described as follows: Degradation of Aurora A protein in MM.1S cell lines (Western blot densitometry). The following applies: MM1.S, 24 h, read-out: Aurora A degrading capacity (%). In kind it is cell-based. On the procedure: Specifically, the MM.1S cells were cultured in RPMI-1640 medium containing 10% fetal bovine serum (FBS), 1% penicillin, and streptomycin (100 U/mL), transferred to a 6-well plate, and after 24 hours, the Aurora A degraders were diluted in the RPMI culture medium and cells were treated with 5 μM concentration thereof. After treatment, the cells were incubated in a CO2 incubator for 24 hours. […] After cell culture was completed according to the experimental conditions, the cells were collected and centrifuged at 1,800 rpm for 3 minutes. The cells in the precipitate were lysed with RIPA (25 mM Tris-HCl pH 7.6, 150 mM NaCl, 1% NP-40, 1% sodium deoxycholate, 0.1% SDS, 1× Protease Inhibitor Cocktail), 5× sample buffer was added, and then heated at 100° C. for 15 minutes. The prepared sample was electrophoresed with sodium dodecyl sulfate poly acrylamide gel electrophoresis (SDS-PAGE), and then the proteins in the gel were transferred to a PVDF membrane using Trans-Blot Turbo. The membrane was treated with a 5% bovine serum albumin (BSA) solution and blocked at room temperature for 2 hours, and then Aurora A and R-actin antibodies were diluted in the 5% BSA solution to react with the membrane at 4° C. overnight. After washed with PBST (0.5% Tween20) 5 times, horse radish peroxidase (HRP)-conjugated secondary antibodies were diluted in PBST to react at room temperature for 2 hours, and then washed again with a PBST solution 5 times. After enzyme-substrate reaction was carried out using a HRP substrate, a signal was measured with chemi-doc equipment, and the densitometry of a band corresponding to the Aurora A protein detected in the Preparation Example Compounds was quantitatively analyzed. The case when the degrading capacity of each Aurora A degrader was reduced by less than 40% is indicated as +, the case when the degrading capacity was reduced by 40% to 70% (exclusive of 70) is indicated as ++, the case when the degrading capacity was reduced by 70% or more is indicated as +++ in Tables 20 to 23 below.
For orientation: In western blotting, separated proteins are transferred to a membrane and probed.
T2 sequence (P47811 whole entry): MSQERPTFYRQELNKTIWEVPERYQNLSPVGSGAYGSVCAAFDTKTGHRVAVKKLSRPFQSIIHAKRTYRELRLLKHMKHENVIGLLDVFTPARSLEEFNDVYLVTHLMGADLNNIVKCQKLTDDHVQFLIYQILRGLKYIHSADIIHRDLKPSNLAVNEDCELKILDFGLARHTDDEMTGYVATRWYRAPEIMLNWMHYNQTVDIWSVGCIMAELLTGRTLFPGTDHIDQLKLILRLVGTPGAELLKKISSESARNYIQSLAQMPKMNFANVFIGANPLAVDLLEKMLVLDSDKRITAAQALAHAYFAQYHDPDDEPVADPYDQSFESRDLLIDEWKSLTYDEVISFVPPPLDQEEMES
Turning to `COc1cc(Nc2ncc3c(n2)-c2ccc(Cl)cc2C(c2c(F)cccc2OC)=NC3)ccc1C(=O)NCCCC(=O)Nc1ccc(-c2cnc(C(F)(F)F)nc2)c(C#CCN)c1` [5-81″, N-(4-((3-(3-aminoprop-1-yn-1-yl)-4-(2-(trifluoromethyl)pyrimidin-5-yl)phenyl)amino)-4-oxobutyl)-4-((9-chloro-7-(2-fluoro-6-methoxyphenyl)-5H-benzo[c]pyrimido[4,5-e]azepin-2-yl)amino)-2-methoxybenzamide trifluoroacetic acid], the Aurora A degradation (%) at 5 µM was greater than 70%.
With `COC(=O)c1ccc(N2CC3(CN(C(=O)c4ccc(Nc5ncc6c(n5)-c5ccc(Cl)cc5C(c5c(F)cccc5OC)=NC6)cc4OC)C3)C2)cc1C#CCN` [5-40″, methyl 2-(3-aminoprop-1-yn-1-yl)-4-(6-(4-((9-chloro-7-(2-fluoro-6-methoxyphenyl)-5H-benzo[c]pyrimido[4,5-e]azepin-2-yl)amino)-2-methoxybenzoyl)-2,6-diazaspiro[3.3]heptan-2-yl)benzoate trifluoroacetic acid], the Aurora A degradation (%) at 5 µM is greater than 70%.
For `COC(=O)c1ccc(NC2CCC(NC(=O)c3ccc(Nc4ncc5c(n4)-c4ccc(Cl)cc4C(c4c(F)cccc4OC)=NC5)cc3OC)CC2)cc1C#CCN` (stereo not shown) [5-35″, methyl 2-(3-aminoprop-1-yn-1-yl)-4-((4-(4-((9-chloro-7-(2-fluoro-6-methoxyphenyl)-5H-benzo[c]pyrimido[4,5-e]azepin-2-yl)amino)-2-methoxybenzamido)cyclohexyl)amino)benzoate trifluoroacetic acid], the Aurora A degradation (%) at 5 µM was greater than 70%.

Still in this experiment, the particulars now being: MM.1S cells, 5 μM, 24 hours, Western blot; control group.
Regarding `COc1cc(Nc2ncc3c(n2)-c2ccc(Cl)cc2C(c2c(F)cccc2OC)=NC3)ccc1C(=O)O` [Formula 2, reference compound], the “Aurora A degrading capacity” value came to 0%.

A further experiment addresses T2, p38 proteins (Mus musculus, UniProt P47811).
T2 construct: endogenous in cells; host or cells: RAW 264.7
The experiment in a line: Degradation of p38 in Raw 264.7 macrophages (Western blot densitometry). The format is cell-based. The following applies: 10 μM, 24 hours. The procedure:
To confirm that the compounds (p38 degraders) of Preparation Examples I″′ to III″′ reduce the amount of phospho-p38 (p-p38) proteins, experiments were performed using Raw 264.7 macrophages. Since p38 MAPK alpha is activated through the process of phosphorylation of threonine 180 (Thr180) and tyrosine 182 (Tyr182) residues by MKK3, MKK6, and the like, which are upstream regulators, phosphorylation of these residues was generally detected using an antibody (3D7 rabbit monoclonal antibody from Cell Signaling, Inc.) that specifically recognizes phospho-p38 (p-p38) MAPK in which p38 MAPK alpha was activated.
Specifically, the RAW 264.7 cells were cultured in DMEM medium containing 10% fetal bovine serum (FBS), 1% penicillin, and streptomycin (100 U/mL), transferred to a 6-well plate, and after 24 hours, the p38 degraders were diluted in the DMEM culture medium and the cells were treated with 10 μM concentration thereof. After treatment, the cells were incubated in a CO2 incubator for 24 hours. Through protein immunoblotting (Western Blot), the degrading capacity of each compound against p38 and p-p38 proteins in cells was confirmed. After cell culture was completed according to the experimental conditions, the cells were collected and centrifuged at 1,800 rpm for 3 minutes. The cells in the precipitate were lysed with RIPA (25 mM Tris-HCl pH 7.6, 150 mM NaCl, 1% NP-40, 1% sodium deoxycholate, 0.1% SDS, 1× Protease Inhibitor Cocktail), 5× sample buffer was added, and then heated at 100° C. for 15 minutes. The prepared sample was electrophoresed with sodium dodecyl sulfate poly acrylamide gel electrophoresis (SDS-PAGE), and then the proteins in the gel were transferred to a PVDF membrane using Trans-Blot Turbo. The membrane was treated with a 5% bovine serum albumin (BSA) solution and blocked at room temperature for 2 hours, and then p-p38, p38, and R-actin antibodies were diluted in the 5% BSA solution to react with the membrane at 4° C. overnight. After washed with PBST (phosphate-based saline containing 0.5% Tween20) 5 times, horse radish peroxidase (HRP)-conjugated secondary antibodies were diluted in PBST to react at room temperature for 2 hours, and then washed again with a PBST solution 5 times. After enzyme-substrate reaction was carried out using a HRP substrate, a signal was measured with chemi-doc equipment, and the densitometry of bands corresponding to the p-p38 and p38 proteins detected in the Preparation Example Compounds was quantitatively analyzed. The case when the degrading capacity of each p38 degrader was reduced by less than 40% is indicated as +, the case when the degrading capacity was reduced by 40% to 70% (exclusive of 70) is indicated as ++, the case when the degrading capacity was reduced by 70% or more is indicated as +++ in Tables 24 to 26 below. As shown in the following Tables, it was confirmed that the compounds of Preparation Examples I″′ to III″′ according to the present invention have excellent degrading capacity.
With `COC(=O)c1ccc(NC(=O)CCCC(=O)OCCOc2ccc(C(=O)c3ccc(-c4cc(C(=O)NC5CC5)ccc4C)cc3)cc2)cc1C#CCN.Cl` [5-106″′, methyl 2-(3-aminoprop-1-yn-1-yl)-4-(5-(2-(4-(5′-(cyclopropylcarbamoyl)-2′-methyl-[1,1′-biphenyl]-4-carbonyl)phenoxy)ethoxy)-5-oxopentanamido)benzoate hydrochloride], the “p38 degrading capacity (%)” value is reported as “+++ (the degrading capacity was reduced by 70% or more)”.
In the case of `Cc1ccc(C(=O)NC2CC2)cc1-c1ccc(C(=O)c2ccc(OCCOC(=O)Nc3ccc(C#CCN)cc3)cc2)cc1.Cl` [1-1″′, 2-(4-(5′-(cyclopropylcarbamoyl)-2′-methyl-[1,1′-biphenyl]-4-carbonyl)phenoxy)ethyl (4-(3-aminoprop-1-yn-1-yl)phenyl)carbamate hydrochloride], the “p38 degrading capacity (%)” value is listed as “+++ (the degrading capacity was reduced by 70% or more)”.
As for `Cc1ccc(C(=O)NC2CC2)cc1-c1ccc(C(=O)c2ccc(OCCOC(=O)NCCCNC(=O)c3ccc(C#CCN)o3)cc2)cc1` [4-166″′, 2-(4-(5′-(cyclopropylcarbamoyl)-2′-methyl-[1,1′-biphenyl]-4-carbonyl)phenoxy)ethyl (3-(5-(3-aminoprop-1-yn-1-yl)furan-2-carboxamido)propyl)carbamate trifluoroacetic acid], the “p38 degrading capacity (%)” value is listed as “+++ (the degrading capacity was reduced by 70% or more)”.
As for `COC(=O)c1ccc(C(=O)N2CCN(C(=O)OCCOc3ccc(C(=O)c4ccc(-c5cc(C(=O)NC6CC6)ccc5C)cc4)cc3)CC2)cc1C#CCN` [5-140″′, 2-(4-(5′-(cyclopropylcarbamoyl)-2′-methyl-[1,1′-biphenyl]-4-carbonyl)phenoxy)ethyl 4-(3-(3-aminoprop-1-yn-1-yl)-4-(methoxycarbonyl)benzoyl)piperazine-1-carboxylate trifluoroacetic acid], the “p38 degrading capacity (%)” value is recorded as “+++ (the degrading capacity was reduced by 70% or more)”.
Same read-out and setting: the result for `COC(=O)c1ccc(C#CCNC(=O)OCCOc2ccc(C(=O)c3ccc(-c4cc(C(=O)NC5CC5)ccc4C)cc3)cc2)cc1C#CCN.Cl` [5-116″′, methyl 2-(3-aminoprop-1-yn-1-yl)-4-(3-(((2-(4-(5′-(cyclopropylcarbamoyl)-2′-methyl-[1,1′-biphenyl]-4-carbonyl)phenoxy)ethoxy)carbonyl)amino)prop-1-yn-1-yl)benzoate hydrochloride] reads “+++ (the degrading capacity was reduced by 70% or more)”.
Take `Cc1ccc(C(=O)NC2CC2)cc1-c1ccc(C(=O)c2ccc(OCCOC(=O)Nc3ccc(C#CC(N)CO)cc3)cc2)cc1.Cl` (stereo not shown) [3-49″′, 2-(4-(5′-(cyclopropylcarbamoyl)-2′-methyl-[1,1′-biphenyl]-4-carbonyl)phenoxy)ethyl (4-(3-amino-4-hydroxybut-1-yn-1-yl)phenyl)carbamate hydrochloride]: the “p38 degrading capacity (%)” value is given as “+++ (the degrading capacity was reduced by 70% or more)”.
